Data set [1] addresses T1, EcIspE (Escherichia coli, UniProt P62615).
T1 construct: made in house
The data set is described as follows: IspE inhibition assay (Promega Kinase-Glo Plus), IC50 determination. Type of data set: biochemical. To be noted: for Ligand efficiency: from IC50 converted to Ki assuming competitive inhibition of the cytidine binding site, KM 150 µM, [CDP-ME] 500 µM, T = 298 K; for fold weaker IC50 / loss in potency compared to the screening hit: relative to parent screening hit (4, 7 or 8); for EcIspE inhibition at 100 µM: typical protein kinase inhibitors evaluated as possible standard inhibitor. The method, then: Inhibition of EcIspE was measured using the Promega Kinase-Glo®-Plus kit. This kit determines the remaining ATP concentration after the kinase reaction took place by converting luciferin to oxyluciferin via an ATP-dependent luciferase. Oxyluciferin is chemoluminescent and can be detected using a plate reader.
The assay was performed under the following conditions: 90 µM ATP, 500 µM CDP-ME, 200 nM EcIspE in 100 mM Tris-HCl, pH 8.5, 20 mM MgCl2, 2% DMSO, 0.01% (v/v) Triton-X 100. The reaction was carried out in 384-well plates with 25 µl reaction volumes, incubated at 25°C for 180 min, and stopped with 25 µl Kinase-Glo® Plus reagent (Promega, Madison, USA). The chemoluminescence signal was developed for 45 min at room temperature and read out in a plate reader (TopCount, PerkinElmer, USA). To monitor assay performance and to control for inhibition of the luciferase of the Kinase-Glo® Plus kit wells containing either the reaction mixture plus compound 3 or 4 or all ingredients except for CDP-ME were also prepared. Further, as quality control for each assay plate, wells containing the kinase reaction without an inhibitor, and wells containing only ATP in assay buffer were prepared. The signals of these wells were averaged (AVHIGH, AVLOW) and used to calculate the signal to noise ratio (AVHIGH/AVLOW) and Z′ (1− [drawing 1]; SD: standard deviation). The best performance was obtained with an ATP concentration of 90 µM and a CDP-ME concentration of 500 µM (Signal to noise ratio = 3.3, Z′ = 0.69 in assay development). In this setup the ATP and CDP-ME concentrations are ∼0.2×K M and ∼3×K M, respectively. Consequently, the assay can be used to detect ligands binding to both the substrate and co-factor binding sites.
(§1) Compounds were dissolved in DMSO at concentrations between 10 and 200 mM (depending on maximal solubility) and added to the reaction mixture with a final concentration of 2% DMSO (v/v). For compounds where IspE inhibition was indicated, a 1∶3 dilution series in DMSO was prepared and tested in the same endpoint assay. IC50 values were derived by non-linear regression with a 4-parameter fit to the following equation in GraFit (Erithacus Software Ltd., Surrey, UK). [drawing 2] where y: measured signal of assay: ymax: saturated signal: [I]: inhibitor concentration: slope: Hill slope; ymin: background signal of assay.
As the assay was performed at relatively high substrate concentrations (∼3×K M) for ligand efficiency calculations, the measured IC50 values were first converted to K i values.
Ligand efficiencies were calculated using the formula: [drawing 4] where T = 298 K and R = the ideal gas constant.
A general note: In Kinase-Glo more light means more ATP remaining.

Data set [2] in a line: Solubility limit in the assay. Type of data set: physicochemical. To be noted: EcIspE assay reaction mixture, aqueous buffer, kinetic from dmso stock; highest concentration tested in the EcIspE assay.
From the text: In the modelled binding mode of ligand 4 the pyrrolopyridine scaffold is sandwiched between Tyr24 and Tyr175 and potentially interacts with His25 via three hydrogen bonds (Figure 12a). In addition, the charged amino group in the tetrahydropyrimidinium ring may form a salt bridge interaction with Asp130. Commercially available analogues of this compound were selected to probe possible interactions with Asp130, His25 and the backbone of Lys145 (Figure 13, Table 4). […] Accordingly, these compounds can no longer form a salt bridge with Asp130. In the predicted binding mode of 12 a neutral hydrogen-bond via the thio-urea group is formed with Asp130 instead while 13 is assumed to interact with Lys9 NZ and Thr171 OG1 (Figure 12c and d). […] In order to accommodate 14 in the binding site in a similar binding mode as 4, structural rearrangements are required to avoid a steric clash of the cyclo-propyl moiety with the backbone carbonyl group of Lys145 (Figure 2). An alternative binding mode for this compound is also possible in which the core is flipped by 180° compared to 4 but still forms hydrogen bonds with His25 (Figure 12b). In this orientation, both substituents are solvent exposed.
as §1

Data set [3] addresses T1, EcIspE. The arrangement: method as in PMID 18033714, PMID 18633530, PMID 18422643, PMID 17361977, PMID 21903402. To be noted: substrate-like IspE inhibitors, Figure 4; cited from earlier work.
The mark [4] stands for this setting: average of three independent measurements, SD in brackets, 90 µM ATP, 500 µM CDP-ME, 200 nM EcIspE, pH 8.5, n.i. = no inhibition at solubility limit measured, read-out: IC50 [M] (SD).

A word on the IC50: it is the concentration at which inhibition is half-maximal. Broadly, the solubility is the concentration that dissolves in the medium under given conditions.

Converted amounts (≈) assume the structure as drawn. Like-named read-outs stand apart in the source and are kept apart here.

T1 sequence (P62615 whole entry): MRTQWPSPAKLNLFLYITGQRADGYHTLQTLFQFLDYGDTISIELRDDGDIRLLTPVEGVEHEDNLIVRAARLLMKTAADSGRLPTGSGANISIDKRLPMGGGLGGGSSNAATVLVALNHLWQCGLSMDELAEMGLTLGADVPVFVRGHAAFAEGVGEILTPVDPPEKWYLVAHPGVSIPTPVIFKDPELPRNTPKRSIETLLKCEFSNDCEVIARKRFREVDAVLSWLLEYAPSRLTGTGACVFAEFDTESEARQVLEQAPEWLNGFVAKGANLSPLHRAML

For the compound `Nc1n[nH]c(NCc2cccnc2)n1` [Compound 1], the half-maximal inhibitory concentration (IC50) at EcIspE [1] (setting [4]) stood at 0.0018 M. Besides, the Ligand efficiency at EcIspE [1] is reported as 0.33 kcal/mol per non-hydrogen atom.

In the case of `CNc1ncc(Br)nc1N` [Compound 2], the IC50 at EcIspE [1] (setting [4]) was determined as 0.00059 M. The Ligand efficiency on EcIspE [1] is 0.53 kcal/mol per non-hydrogen atom.

Turning to `Oc1csc(Nc2nccs2)n1` [Compound 3], on EcIspE [1], the Ligand efficiency is given as 0.50 kcal/mol per non-hydrogen atom. Besides, at EcIspE [1] (read-out: IC50), the IC50 came out at 0.00016 M. Consider `C1=C(c2c[nH]c3ncccc23)CCNC1` [Compound 4], for which, on EcIspE [1], the half-maximal inhibitory concentration (IC50) is 0.0015 M and the Ligand efficiency is 0.32 kcal/mol per non-hydrogen atom. Consider `Nc1nc(N)c2[nH]c(=O)[nH]c2n1` [Compound 5], for which the IC50 at EcIspE [1] (setting [4]) stood at 0.0023 M. The Ligand efficiency on EcIspE [1] is listed as 0.37 kcal/mol per non-hydrogen atom.

For the compound `Nc1cc(-c2ccco2)[nH]n1` [Compound 6], the IC50 on EcIspE [1] (setting [4]) worked out at 0.0035 M. For the same compound, on EcIspE [1], the Ligand efficiency is 0.28 kcal/mol per non-hydrogen atom. For `Cc1[nH]c2ccccc2c1C(Nc1ccccn1)c1ccccc1O` (centres unmarked) [Compound 7], the Ligand efficiency at EcIspE [1] is listed as 0.29 kcal/mol per non-hydrogen atom. The IC50 on EcIspE [1] (read-out: IC50) was 1.9e-05 M.

Regarding `O=c1c2ccccc2nc(-c2cccnc2)n1-c1ccc(Br)cn1` [Compound 8], at EcIspE [1], the IC50 turned out to be 2.5e-06 M and the Ligand efficiency is 0.35 kcal/mol per non-hydrogen atom.

Consider `c1csc(NC2CCCCC2)n1` [Compound 9], for which the concentration for half-maximal inhibition (IC50) on EcIspE [1] (setting [4]) turned out to be 0.0094 M. In addition, on EcIspE [1], the Ligand efficiency is 0.30 kcal/mol per non-hydrogen atom.

Take `Oc1ccccc1CNc1nccs1` [Compound 10]: the IC50 at EcIspE [1] (setting [4]) turned out to be 0.0066 M. On EcIspE [1], the Ligand efficiency is 0.27 kcal/mol per non-hydrogen atom. On the same counts, the results for `CC(C)Nc1nccs1` [Compound 11] are 0.002 M and 0.50 kcal/mol per non-hydrogen atom. On the same counts, the results for `CNC(=S)N1CC=C(c2c[nH]c3ncccc23)CC1` [Compound 12] are 0.00083 M and 0.27 kcal/mol per non-hydrogen atom. On the same counts, the results for `C1=C(c2c[nH]c3ncccc23)CCN(c2ncccn2)C1` [Compound 13] are 0.00047 M and 0.26 kcal/mol per non-hydrogen atom.

For `CN1CC=C(c2c(C3CC3)[nH]c3ncccc23)CC1` [Compound 14], the IC50 on EcIspE [1] (setting [4]) came to 0.0087 M. On EcIspE [1], the Ligand efficiency is reported as 0.19 kcal/mol per non-hydrogen atom and the “fold weaker IC50 / loss in potency compared to the screening hit” value is 5.8 fold. Take `c1ccc(C[n+]2cccc3cc[nH]c32)cc1` [Compound 15]: in data set [2], the solubility lay within 1000 to 5000 µM. For the compound `CC(C)c1cc2cccnc2n1CCCN` [Compound 16], the solubility in data set [2] lay within 1000 to 5000 µM (≈ 217 to 1090 µg/mL).

In the case of `CC(C)c1cc2cccnc2n1CCC(=O)O` [Compound 17], the solubility in data set [2] lay within 1000 to 5000 µM (≈ 232 to 1160 µg/mL).

`Cc1[nH]c2ccccc2c1C(Nc1ccccn1)c1cccc(Cl)c1` (centres unmarked) [Compound 18]: the Ligand efficiency on EcIspE [1] is given as 0.21 kcal/mol per non-hydrogen atom. On to `Cc1[nH]c2ccccc2c1C(Nc1ccccn1)c1ccccc1Cl` (centres unmarked) [Compound 19], for which the half-maximal inhibitory concentration (IC50) at EcIspE [1] (setting [4]) turned out to be 0.0024 M. The Ligand efficiency at EcIspE [1] is recorded as 0.18 kcal/mol per non-hydrogen atom. As for `Cc1[nH]c2ccccc2c1C(Nc1cccc(Cl)c1)c1ccccn1` (centres unmarked) [Compound 20], the IC50 at EcIspE [1] (setting [4]) was 0.0025 M. At EcIspE [1], the Ligand efficiency is 0.18 kcal/mol per non-hydrogen atom and the “fold weaker IC50 / loss in potency compared to the screening hit” value amounted to 130 fold. The corresponding values for `COc1ccc(-n2c(-c3cccnc3)nc3ccccc3c2=O)cc1` [Compound 21] are 2.7e-05 M, 0.28 kcal/mol per non-hydrogen atom and 11 fold. With `O=c1c2ccccc2nc(-c2ccccn2)n1-c1ccccc1` [Compound 22], the IC50 at EcIspE [1] (setting [4]) was 0.00018 M. Moreover, the Ligand efficiency at EcIspE [1] is 0.26 kcal/mol per non-hydrogen atom. On to `COc1ccc(-n2c(-c3ccncc3)nc3ccccc3c2=O)cc1` [Compound 23], for which the concentration for half-maximal inhibition (IC50) at EcIspE [1] (setting [4]) was 0.00032 M. In addition, at EcIspE [1], the Ligand efficiency is 0.23 kcal/mol per non-hydrogen atom. Turning to `Nc1ccn([C@@H]2O[C@H](CNC(=O)Cc3nc4ccccc4[nH]3)[C@@H](O)[C@H]2O)c(=O)n1` [a], on EcIspE [3], the half-inhibitory concentration (IC50) is 2000 µM. Turning to `Nc1ccn([C@@H]2O[C@H](CNC(=O)CCc3nc4ccccc4[nH]3)[C@@H](O)[C@H]2O)c(=O)n1` [b], the half-maximal inhibitory concentration (IC50) on EcIspE [3] is 2000 µM. For the compound `O=C1Cc2c([nH]c3ccc(Br)cc23)-c2ccccc2N1` [kenpaullone, reference compound], the “EcIspE inhibition at 100 µM” value on EcIspE [1] is reported as “none of the compounds showed any EcIspE inhibition”.

In the case of `CN[C@@H]1C[C@H]2O[C@@](C)([C@@H]1OC)n1c3ccccc3c3c4c(c5c6ccccc6n2c5c31)C(=O)NC4` [staurosporine, reference compound], the “EcIspE inhibition at 100 µM” value on EcIspE [1] is given as “none of the compounds showed any EcIspE inhibition”.

For the compound purvalanol [reference compound], on EcIspE [1], the “EcIspE inhibition at 100 µM” value is reported as “none of the compounds showed any EcIspE inhibition”.

(Values after publication PMC3340893, “IspE Inhibitors Identified by a Combination of In Silico and In Vitro High-Throughput Screening” (PLoS ONE, 2012).)
